Test results reported in ChEMBL document CHEMBL1134211, “8-Carboxamidocyclazocine analogues: redefining the structure-activity relationships of 2,6-methano-3-benzazocines” (Bioorg Med Chem Lett, 2001).

Experiments:
[1] = target: Kappa-type opioid receptor (Cavia porcellus, UniProt P41144); assay: Displacement of [3H]U-69593 from Opioid receptor kappa 1 of guinea pig brain membranes
[2] = target: Mu-type opioid receptor (Cavia porcellus, UniProt P97266); assay: Displacement of [3H]DAMGO from Opioid receptor mu 1 of guinea pig brain membranes
[3] = Displacement of [3H]naltrindole from Opioid receptor delta 1 of guinea pig brain membranes

Sequence of Kappa-type opioid receptor (P41144 whole entry): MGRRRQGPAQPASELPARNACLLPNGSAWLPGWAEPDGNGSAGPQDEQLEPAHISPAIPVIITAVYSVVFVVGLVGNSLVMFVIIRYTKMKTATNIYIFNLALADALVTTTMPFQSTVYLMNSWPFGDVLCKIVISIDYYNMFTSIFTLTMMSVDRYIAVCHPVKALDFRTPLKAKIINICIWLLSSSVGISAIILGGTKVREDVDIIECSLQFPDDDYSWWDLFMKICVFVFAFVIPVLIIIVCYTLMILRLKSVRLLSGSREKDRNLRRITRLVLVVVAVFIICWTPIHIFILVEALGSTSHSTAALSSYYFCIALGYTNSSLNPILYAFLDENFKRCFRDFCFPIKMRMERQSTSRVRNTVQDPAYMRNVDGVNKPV
Sequence of Mu-type opioid receptor (P97266 whole entry): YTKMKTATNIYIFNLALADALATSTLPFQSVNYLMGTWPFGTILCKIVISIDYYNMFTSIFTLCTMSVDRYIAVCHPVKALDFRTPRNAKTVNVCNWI

Compound	Ki [1] [µM]	Ki [2] [µM]	Ki [3] [µM]
CNC(=O)c1ccc2c(c1)[C@@]1(C)CCN(CC3CC3)C(C2)[C@@H]1C (mixture of isomers)	0.0026	0.024	
C[C@H]1[C@H]2Cc3ccc(O)cc3[C@@]1(C)CCN2CC1CC1 (racemic)			0.0011
C[C@H]1C2Cc3ccc(C(=O)Nc4ccccc4)cc3[C@@]1(C)CCN2CC1CC1 (mixture of isomers)	0.46	0.74	
C[C@@H]1[C@@H]2Cc3ccc(O)cc3[C@@]1(C)CN2CC1CC1			1.1
CC[C@@]12CCN(CC3CC3)C(C(=O)c3ccc(C(N)=O)cc31)[C@@H]2C (mixture of isomers)	0.0007	0.0012	
C[C@H]1C2Cc3ccc(C(=O)N(C)C)cc3[C@@]1(C)CCN2CC1CC1 (mixture of isomers)	2.5	3	
COC(=O)c1ccc2c(c1)[C@@]1(C)CCN(CC3CC3)C(C2)[C@@H]1C (mixture of isomers)		0.045	
C[C@H]1C2Cc3ccc(C#N)cc3[C@@]1(C)CCN2CC1CC1 (mixture of isomers)		0.54	
C[C@H]1C2Cc3ccc(C(=O)O)cc3[C@@]1(C)CCN2CC1CC1 (mixture of isomers)	0.031	0.058	
